Literature values, collected in patent US8524293B1, “Method for producing a red grape tea-like composition” (priority 2009, dated 2013).

Assays:
flu = settings: laboratory animals
[1] = tested on: intestinal tumor formation; settings: cancerous mouse

In the case of `O=c1c(O)c(-c2ccc(O)c(O)c2)oc2cc(O)cc(O)c12` [quercetin], the risk of flu (flu) is given as “reduce the risk of flu”.
For catechin, the “focal adhesion kinase activation” value [1] is listed as “suppressed focal adhesion kinase activation” and the intestinal tumor formation [1] is listed as “inhibited intestinal tumor formation”.
